Data reported in patent US7329422B2, “Pharmaceutical compositions” (priority 2002, dated 2008).

Key:
[1] = system: human breast cancer cells; experiment: purified B-2 compound on human breast cancer cells grown in tissue culture; format: cell-based
Source text: (§1) Test were made of the purified B-2 compound on human breast cancer cells grown in tissue culture.

[2] = system: human liver cancer cells; experiment: purified B-2 compound on human liver cancer cells in tissue culture; format: cell-based; details: visually evident
Source text: as §1
The experiment was repeated using human liver cancer cells.

For `Oc1cc(O)c2c(c1)O[C@H](c1ccc(O)c(O)c1)[C@H](O)[C@H]2c1c(O)cc(O)c2c1O[C@H](c1ccc(O)c(O)c1)[C@H](O)C2` [purified B-2 compound, procyanidin B-2], the “number of cells in treated samples” value [1] was “marked reduction” and the “number of cancer cells” value [2] was “substantially reduced”.
